Experimental data: US10800741B2 (ANCUREALL PHARMACEUTICAL (SHANGHAI) CO., LTD., priority 2017, dated 2020)

Experiments:
Test in all cases: KINOMEscan in vitro binding to 468 labeled protein kinases
protein kinases [1] = molecular target: T1, protein kinases (Homo sapiens, UniProt O94804); settings: LOK
T1 construct: purchased Discovery X company (USA), KINOMEscan screening platform
Summary of the method: (§1)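 Competition binding across 468 labelled kinases on the KINOMEscan platform, compound tested at 1000 nM, 10 nM and 1 nM, duplicate samples. Result given as percentage of DMSO solvent control; lower percentage means stronger binding.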

protein kinases [2] = molecular target: T2, protein kinases (Homo sapiens, UniProt P22607); settings: FGFR3, read-out: Test compound/solvent control (%)
T2 construct: purchased Discovery X company (USA), KINOMEscan screening platform
Summary of the method: as §1

protein kinases [3] = molecular target: T3, protein kinases (Homo sapiens, UniProt P06241); settings: FYN, read-out: Test compound/solvent control (%)
T3 construct: purchased Discovery X company (USA), KINOMEscan screening platform
T3 sequence (P06241 whole entry): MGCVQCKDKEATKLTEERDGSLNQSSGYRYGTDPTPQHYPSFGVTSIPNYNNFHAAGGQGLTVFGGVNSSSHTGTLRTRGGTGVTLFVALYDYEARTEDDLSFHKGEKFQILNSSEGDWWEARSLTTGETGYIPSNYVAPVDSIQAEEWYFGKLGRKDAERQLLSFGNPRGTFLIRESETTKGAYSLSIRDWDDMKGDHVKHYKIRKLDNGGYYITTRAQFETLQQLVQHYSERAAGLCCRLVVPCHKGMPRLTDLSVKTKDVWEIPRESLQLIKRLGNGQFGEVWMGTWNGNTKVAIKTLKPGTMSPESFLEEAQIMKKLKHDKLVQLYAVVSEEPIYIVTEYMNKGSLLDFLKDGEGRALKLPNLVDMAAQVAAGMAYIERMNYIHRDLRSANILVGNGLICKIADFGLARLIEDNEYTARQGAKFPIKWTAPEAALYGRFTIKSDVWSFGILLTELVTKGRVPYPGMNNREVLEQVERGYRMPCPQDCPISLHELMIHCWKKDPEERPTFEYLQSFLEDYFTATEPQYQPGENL
Summary of the method: as §1

protein kinases [4] = test system: protein kinases
Summary of the method: as §1

protein kinases [5] = molecular target: T4, protein kinases (Homo sapiens, UniProt P00533, DEL746-750); settings: EGFR(E746-A750de1)
T4 construct: purchased Discovery X company (USA), KINOMEscan screening platform
T4 sequence (P00533 with tags, fused parts or gaps DEL746-750): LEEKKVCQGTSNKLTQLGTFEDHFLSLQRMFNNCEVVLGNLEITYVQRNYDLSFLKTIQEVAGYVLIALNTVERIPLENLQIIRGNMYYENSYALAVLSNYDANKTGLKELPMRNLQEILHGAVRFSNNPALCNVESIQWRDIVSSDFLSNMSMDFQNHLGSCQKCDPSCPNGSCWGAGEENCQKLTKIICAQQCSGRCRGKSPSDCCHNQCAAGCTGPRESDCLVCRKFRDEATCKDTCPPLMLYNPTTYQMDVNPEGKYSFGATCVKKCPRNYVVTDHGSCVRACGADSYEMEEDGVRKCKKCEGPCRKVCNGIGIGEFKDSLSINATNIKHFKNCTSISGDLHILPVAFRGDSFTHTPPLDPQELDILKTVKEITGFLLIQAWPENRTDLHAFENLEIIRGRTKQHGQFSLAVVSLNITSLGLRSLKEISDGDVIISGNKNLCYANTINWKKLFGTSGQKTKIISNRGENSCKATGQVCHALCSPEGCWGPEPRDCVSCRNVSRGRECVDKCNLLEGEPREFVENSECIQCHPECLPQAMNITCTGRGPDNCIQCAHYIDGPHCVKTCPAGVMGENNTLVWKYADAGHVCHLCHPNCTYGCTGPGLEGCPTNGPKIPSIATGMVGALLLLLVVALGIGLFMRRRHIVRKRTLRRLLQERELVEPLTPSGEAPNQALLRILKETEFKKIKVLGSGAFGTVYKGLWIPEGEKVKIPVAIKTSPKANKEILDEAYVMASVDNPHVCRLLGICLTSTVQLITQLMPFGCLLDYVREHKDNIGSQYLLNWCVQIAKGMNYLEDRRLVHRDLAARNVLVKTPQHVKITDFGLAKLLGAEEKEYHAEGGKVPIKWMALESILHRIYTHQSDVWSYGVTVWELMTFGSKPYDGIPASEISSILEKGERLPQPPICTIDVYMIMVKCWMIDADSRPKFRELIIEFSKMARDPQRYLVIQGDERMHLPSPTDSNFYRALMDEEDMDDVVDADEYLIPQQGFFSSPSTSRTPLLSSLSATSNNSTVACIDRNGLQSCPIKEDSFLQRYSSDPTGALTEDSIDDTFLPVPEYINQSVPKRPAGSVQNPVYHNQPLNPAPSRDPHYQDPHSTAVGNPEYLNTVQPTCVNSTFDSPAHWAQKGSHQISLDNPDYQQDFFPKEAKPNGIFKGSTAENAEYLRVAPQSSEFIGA
Summary of the method: as §1

protein kinases [6] = molecular target: T5, protein kinases (Homo sapiens, UniProt P00519, E255K); settings: ABL1(E255K)-phosphorylated, read-out: Test compound/solvent control (%)
T5 construct: purchased Discovery X company (USA), KINOMEscan screening platform
T5 sequence (P00519 whole entry E255K): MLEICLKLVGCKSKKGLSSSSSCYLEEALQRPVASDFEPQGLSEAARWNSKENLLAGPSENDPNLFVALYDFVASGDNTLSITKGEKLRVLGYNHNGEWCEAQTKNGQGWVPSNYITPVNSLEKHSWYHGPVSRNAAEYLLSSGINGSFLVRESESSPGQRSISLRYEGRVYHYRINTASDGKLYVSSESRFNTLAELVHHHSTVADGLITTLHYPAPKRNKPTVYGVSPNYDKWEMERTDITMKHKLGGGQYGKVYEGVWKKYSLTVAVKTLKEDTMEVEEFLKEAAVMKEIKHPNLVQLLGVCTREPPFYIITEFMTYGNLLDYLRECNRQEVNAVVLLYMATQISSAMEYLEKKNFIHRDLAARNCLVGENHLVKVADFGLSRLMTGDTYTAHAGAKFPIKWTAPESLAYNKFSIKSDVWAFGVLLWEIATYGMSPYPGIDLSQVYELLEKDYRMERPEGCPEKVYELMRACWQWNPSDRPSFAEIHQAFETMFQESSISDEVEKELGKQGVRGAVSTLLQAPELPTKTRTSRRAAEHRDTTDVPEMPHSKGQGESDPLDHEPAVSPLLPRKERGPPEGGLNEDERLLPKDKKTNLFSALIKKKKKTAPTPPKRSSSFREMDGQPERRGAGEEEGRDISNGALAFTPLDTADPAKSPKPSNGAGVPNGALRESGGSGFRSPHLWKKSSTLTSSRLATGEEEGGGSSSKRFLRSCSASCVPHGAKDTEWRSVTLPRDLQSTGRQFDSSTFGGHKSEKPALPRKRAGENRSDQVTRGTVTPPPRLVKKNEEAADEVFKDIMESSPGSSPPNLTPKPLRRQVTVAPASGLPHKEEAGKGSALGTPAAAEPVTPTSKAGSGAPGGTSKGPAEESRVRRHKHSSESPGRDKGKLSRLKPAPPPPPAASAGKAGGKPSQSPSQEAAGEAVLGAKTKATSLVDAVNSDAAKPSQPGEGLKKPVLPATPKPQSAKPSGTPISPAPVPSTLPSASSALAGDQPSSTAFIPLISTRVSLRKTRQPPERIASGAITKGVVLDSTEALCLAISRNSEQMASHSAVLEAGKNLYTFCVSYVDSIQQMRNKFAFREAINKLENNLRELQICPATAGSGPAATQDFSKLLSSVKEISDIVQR
Summary of the method: as §1

protein kinases [7] = molecular target: T6, protein kinases (Homo sapiens, UniProt P10721, L576P); settings: KIT(L576P), read-out: Test compound/solvent control (%)
T6 construct: purchased Discovery X company (USA), KINOMEscan screening platform
Summary of the method: as §1

protein kinases [8] = molecular target: T7, protein kinases (Homo sapiens, UniProt P12931); settings: SRC, read-out: Test compound/solvent control (%)
T7 construct: purchased Discovery X company (USA), KINOMEscan screening platform
Summary of the method: as §1

protein kinases [9] = molecular target: T8, protein kinases (Homo sapiens, UniProt P10721, V559D); settings: KIT(V559D), read-out: Test compound/solvent control (%)
T8 construct: purchased Discovery X company (USA), KINOMEscan screening platform
Summary of the method: as §1

protein kinases [10] = molecular target: T9, protein kinases (Homo sapiens, UniProt P36888, K663Q); settings: FLT3(K663Q), read-out: Test compound/solvent control (%)
T9 construct: purchased Discovery X company (USA), KINOMEscan screening platform
T9 sequence (P36888 27-993 K663Q): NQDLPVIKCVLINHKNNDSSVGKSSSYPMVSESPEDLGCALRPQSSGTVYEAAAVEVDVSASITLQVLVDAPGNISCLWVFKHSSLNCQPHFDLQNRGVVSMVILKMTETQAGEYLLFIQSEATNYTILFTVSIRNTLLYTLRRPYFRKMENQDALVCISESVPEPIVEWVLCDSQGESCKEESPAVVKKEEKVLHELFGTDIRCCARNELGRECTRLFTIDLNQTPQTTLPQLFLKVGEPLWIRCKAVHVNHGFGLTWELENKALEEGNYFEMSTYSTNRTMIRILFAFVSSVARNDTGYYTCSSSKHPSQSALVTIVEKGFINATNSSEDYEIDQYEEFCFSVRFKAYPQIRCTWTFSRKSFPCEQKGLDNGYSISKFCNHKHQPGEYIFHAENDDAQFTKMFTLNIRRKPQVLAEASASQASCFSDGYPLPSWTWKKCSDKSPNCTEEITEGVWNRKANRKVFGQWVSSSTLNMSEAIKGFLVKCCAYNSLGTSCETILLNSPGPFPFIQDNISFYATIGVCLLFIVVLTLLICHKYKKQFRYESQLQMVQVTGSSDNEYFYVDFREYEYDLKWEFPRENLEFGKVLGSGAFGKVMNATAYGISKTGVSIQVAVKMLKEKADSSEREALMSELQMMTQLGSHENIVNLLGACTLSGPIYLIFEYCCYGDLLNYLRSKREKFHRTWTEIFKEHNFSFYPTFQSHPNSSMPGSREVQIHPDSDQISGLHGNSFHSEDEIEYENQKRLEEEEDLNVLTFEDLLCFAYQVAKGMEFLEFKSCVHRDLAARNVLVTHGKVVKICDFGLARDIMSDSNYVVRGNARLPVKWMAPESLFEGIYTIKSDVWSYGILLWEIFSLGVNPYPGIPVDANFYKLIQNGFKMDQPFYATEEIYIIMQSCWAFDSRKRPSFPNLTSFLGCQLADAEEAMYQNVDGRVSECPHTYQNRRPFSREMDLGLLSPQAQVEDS
Summary of the method: as §1

protein kinases [11] = molecular target: T10, protein kinases (Homo sapiens, UniProt P07949); settings: RET, read-out: Test compound/solvent control (%)
T10 construct: purchased Discovery X company (USA), KINOMEscan screening platform
T10 sequence (P07949 29-1114): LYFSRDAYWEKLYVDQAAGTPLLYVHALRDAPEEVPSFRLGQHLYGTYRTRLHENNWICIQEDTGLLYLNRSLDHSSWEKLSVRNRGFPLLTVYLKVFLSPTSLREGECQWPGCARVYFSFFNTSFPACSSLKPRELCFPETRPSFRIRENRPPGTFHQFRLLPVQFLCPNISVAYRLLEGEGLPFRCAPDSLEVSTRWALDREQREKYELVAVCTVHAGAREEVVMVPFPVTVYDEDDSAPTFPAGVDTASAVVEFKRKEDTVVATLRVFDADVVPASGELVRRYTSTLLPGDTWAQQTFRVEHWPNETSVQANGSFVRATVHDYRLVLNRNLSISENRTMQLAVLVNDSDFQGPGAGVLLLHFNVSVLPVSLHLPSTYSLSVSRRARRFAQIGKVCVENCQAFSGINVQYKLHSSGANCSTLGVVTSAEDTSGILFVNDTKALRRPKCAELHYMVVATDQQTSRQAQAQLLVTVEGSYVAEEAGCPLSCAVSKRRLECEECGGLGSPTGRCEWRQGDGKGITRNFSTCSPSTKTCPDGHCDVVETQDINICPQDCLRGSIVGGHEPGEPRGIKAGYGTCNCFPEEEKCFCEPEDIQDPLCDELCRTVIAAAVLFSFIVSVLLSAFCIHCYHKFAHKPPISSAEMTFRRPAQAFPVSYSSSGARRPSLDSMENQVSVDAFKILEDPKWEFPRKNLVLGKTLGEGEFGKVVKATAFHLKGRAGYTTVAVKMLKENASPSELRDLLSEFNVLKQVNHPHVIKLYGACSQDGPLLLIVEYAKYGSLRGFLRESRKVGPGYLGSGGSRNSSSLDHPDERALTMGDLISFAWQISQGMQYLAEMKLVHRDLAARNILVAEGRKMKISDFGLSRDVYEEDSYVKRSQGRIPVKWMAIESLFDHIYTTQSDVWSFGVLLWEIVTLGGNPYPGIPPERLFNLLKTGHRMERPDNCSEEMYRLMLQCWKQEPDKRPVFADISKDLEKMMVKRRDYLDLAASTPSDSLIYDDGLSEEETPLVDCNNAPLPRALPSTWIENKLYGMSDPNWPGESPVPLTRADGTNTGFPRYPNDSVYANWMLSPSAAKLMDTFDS
Summary of the method: as §1

protein kinases [12] = molecular target: T11, protein kinases (Homo sapiens, UniProt P07949, M918T); settings: RET(M918T), read-out: Test compound/solvent control (%)
T11 construct: purchased Discovery X company (USA), KINOMEscan screening platform
T11 sequence (P07949 29-1114 M918T): as the sequence (P07949 29-1114) above, with M890T counted along it
Summary of the method: as §1

protein kinases [13] = molecular target: T12, protein kinases (Homo sapiens, UniProt Q9UKE5); settings: TNIK, read-out: Test compound/solvent control (%)
T12 construct: purchased Discovery X company (USA), KINOMEscan screening platform
Summary of the method: as §1

T1 sequence (O94804 whole entry): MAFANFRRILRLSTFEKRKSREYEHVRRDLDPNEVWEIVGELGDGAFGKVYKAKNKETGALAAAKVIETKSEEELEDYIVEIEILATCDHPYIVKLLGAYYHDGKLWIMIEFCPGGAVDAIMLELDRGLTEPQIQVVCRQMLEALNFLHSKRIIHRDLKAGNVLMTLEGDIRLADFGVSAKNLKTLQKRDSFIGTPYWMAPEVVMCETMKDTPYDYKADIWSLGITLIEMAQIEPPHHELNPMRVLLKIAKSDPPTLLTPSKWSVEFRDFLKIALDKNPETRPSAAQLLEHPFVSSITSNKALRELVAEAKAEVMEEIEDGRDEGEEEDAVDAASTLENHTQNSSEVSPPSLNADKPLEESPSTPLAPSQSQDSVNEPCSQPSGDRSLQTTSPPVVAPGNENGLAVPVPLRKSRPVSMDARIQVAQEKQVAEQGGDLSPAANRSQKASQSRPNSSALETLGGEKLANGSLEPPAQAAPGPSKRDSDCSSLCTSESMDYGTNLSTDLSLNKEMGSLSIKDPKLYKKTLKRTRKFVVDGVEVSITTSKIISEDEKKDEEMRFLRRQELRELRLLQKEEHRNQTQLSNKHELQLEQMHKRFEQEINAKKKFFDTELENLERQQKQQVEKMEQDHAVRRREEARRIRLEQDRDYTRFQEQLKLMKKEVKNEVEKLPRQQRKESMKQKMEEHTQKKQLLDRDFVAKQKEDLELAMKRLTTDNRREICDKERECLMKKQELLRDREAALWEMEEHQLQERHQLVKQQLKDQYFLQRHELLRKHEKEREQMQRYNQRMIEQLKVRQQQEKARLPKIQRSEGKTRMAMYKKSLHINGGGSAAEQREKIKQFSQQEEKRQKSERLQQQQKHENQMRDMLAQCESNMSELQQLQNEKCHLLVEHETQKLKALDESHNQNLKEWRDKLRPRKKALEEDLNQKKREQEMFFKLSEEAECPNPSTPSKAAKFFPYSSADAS

Test compound/solvent control (%) (protein kinases [1]; 1 nM): 57%
Test compound/solvent control (%) (protein kinases [1]; 10 nM): 1.3%
Test compound/solvent control (%) (protein kinases [1]; 1000 nM): 0%
remaining binding at 0.001 µM (protein kinases [2]; 1 nM): 100%
remaining binding at 0.01 µM (protein kinases [2]; 10 nM): 82%
remaining binding at 1 µM (protein kinases [2]; 1000 nM): 0.2%
remaining binding at 0.001 µM (protein kinases [3]; 1 nM): 94%
remaining binding at 0.01 µM (protein kinases [3]; 10 nM): 41%
remaining binding at 1 µM (protein kinases [3]; 1000 nM): 0%
Test compound/solvent control (%) (protein kinases [4]; EGFR(L747-E749del, A750P), 1 nM): 92%
Test compound/solvent control (%) (protein kinases [4]; EGFR(L747-E749del, A750P), 10 nM): 11%
Test compound/solvent control (%) (protein kinases [4]; EGFR(L747-E749del, A750P), 1000 nM): 0%
Test compound/solvent control (%) (protein kinases [4]; EGFR(L747-S752del, P753S), 1 nM): 67%
Test compound/solvent control (%) (protein kinases [4]; EGFR(L747-S752del, P753S), 10 nM): 16%
Test compound/solvent control (%) (protein kinases [4]; EGFR(L747-S752del, P753S), 1000 nM): 1.6%
Test compound/solvent control (%) (protein kinases [4]; EGFR(L747-T751del, Sins), 1 nM): 68%
Test compound/solvent control (%) (protein kinases [4]; EGFR(L747-T751del, Sins), 10 nM): 11%
Test compound/solvent control (%) (protein kinases [4]; EGFR(L747-T751del, Sins), 1000 nM): 2.7%
Test compound/solvent control (%) (protein kinases [5]; 1 nM): 60%
Test compound/solvent control (%) (protein kinases [5]; 10 nM): 18%
Test compound/solvent control (%) (protein kinases [5]; 1000 nM): 2.8%
remaining binding at 0.001 µM (protein kinases [6]; 1 nM): 50%
remaining binding at 0.01 µM (protein kinases [6]; 10 nM): 7.6%
remaining binding at 1 µM (protein kinases [6]; 1000 nM): 0.1%
remaining binding at 0.001 µM (protein kinases [7]; 1 nM): 95%
remaining binding at 0.01 µM (protein kinases [7]; 10 nM): 32%
remaining binding at 1 µM (protein kinases [7]; 1000 nM): 0%
remaining binding at 0.001 µM (protein kinases [8]; 1 nM): 36%
remaining binding at 0.01 µM (protein kinases [8]; 10 nM): 1.4%
remaining binding at 1 µM (protein kinases [8]; 1000 nM): 0.1%
remaining binding at 0.001 µM (protein kinases [9]; 1 nM): 82%
remaining binding at 0.01 µM (protein kinases [9]; 10 nM): 18%
remaining binding at 1 µM (protein kinases [9]; 1000 nM): 0%
remaining binding at 0.001 µM (protein kinases [10]; 1 nM): 89%
remaining binding at 0.01 µM (protein kinases [10]; 10 nM): 22%
remaining binding at 1 µM (protein kinases [10]; 1000 nM): 3.2%
remaining binding at 0.001 µM (protein kinases [11]; 1 nM): 85%
remaining binding at 0.01 µM (protein kinases [11]; 10 nM): 17%
remaining binding at 1 µM (protein kinases [11]; 1000 nM): 0%
remaining binding at 0.001 µM (protein kinases [12]; 1 nM): 78%
remaining binding at 0.01 µM (protein kinases [12]; 10 nM): 8.5%
remaining binding at 1 µM (protein kinases [12]; 1000 nM): 0%
remaining binding at 0.001 µM (protein kinases [13]; 1 nM): 44%
remaining binding at 0.01 µM (protein kinases [13]; 10 nM): 6.4%
remaining binding at 1 µM (protein kinases [13]; 1000 nM): 7%
SMILES: COCCOc1cc2nccc(Oc3ccc(NC(=O)Nc4cc(C(C)(C)C)n[nH]4)c(Cl)c3)c2cc1NC(C)=O [Compound 66, N-[4-{4-[3-(5-tert-butyl-2H-pyrazol-3-yl)-ureido]-3-chloro-phenoxy}-7-(2-methoxy-ethoxy)-quinolin-6-yl]-acetamide]
